Tests used:
SGC-7901 [1] = test: Cytotoxicity against human SGC7901 cells assessed as growth inhibition after 72 hrs by MTT assay; type: functional, cell-based; details: SGC-7901, 72 h
SGC-7901 [2] = test: Cytotoxicity against human SGC7901 cells assessed as growth inhibition at 40 ug/mL after 72 hrs by MTT assay; type: functional; details: SGC-7901, 72 h, read-out: GI
[3] = Cytotoxicity against human A875 cells assessed as growth inhibition after 72 hrs by MTT assay; type: functional, cell-based; details: A875, 72 h
[4] = Cytotoxicity against African green monkey MARC145 cells assessed as growth inhibition after 72 hrs by MTT assay; type: functional, cell-based; details: Chlorocebus aethiops, MARC145, 72 h
[5] = Cytotoxicity against human A875 cells assessed as growth inhibition at 40 ug/mL after 72 hrs by MTT assay; type: functional; details: A875, 72 h, read-out: GI
HepG2 [6] = test: Cytotoxicity against human HepG2 cells assessed as growth inhibition at 40 ug/mL after 72 hrs by MTT assay; type: functional; details: HepG2, 72 h, read-out: GI
HepG2 [7] = test: Cytotoxicity against human HepG2 cells assessed as growth inhibition after 72 hrs by MTT assay; type: functional, cell-based; details: HepG2, 72 h
[8] = Cytotoxicity against African green monkey MARC145 cells assessed as growth inhibition at 40 ug/mL after 72 hrs by MTT assay; type: functional; details: Chlorocebus aethiops, MARC145, 72 h; read-out: GI

## O=C(NCCc1ccc(F)cc1)c1cc2c([nH]c3ccccc32)c(C(=O)c2c[nH]c3ccccc23)n1
SGC-7901 [1]
  IC50: 34 µM
SGC-7901 [2]
  inhibition of growth at 40 µg/mL: 76.7%
[3]
  IC50: > 80 µM
[4]
  IC50: 48.8 µM
[5]
  inhibition of growth at 40 µg/mL: 33.9%
HepG2 [6]
  inhibition of growth at 40 µg/mL: 72.4%
HepG2 [7]
  IC50: 38.5 µM
[8]
  inhibition of growth at 40 µg/mL: 63%

## O=C(NCc1ccc(F)cc1)c1cc2c([nH]c3ccccc32)c(C(=O)c2c[nH]c3ccccc23)n1
SGC-7901 [1]
  IC50: 34.5 µM
SGC-7901 [2]
  inhibition of growth at 40 µg/mL: 78.8%
[3]
  IC50: 63.1 µM
[4]
  IC50: 55.1 µM
[5]
  inhibition of growth at 40 µg/mL: 68.1%
HepG2 [6]
  inhibition of growth at 40 µg/mL: 73.9%
HepG2 [7]
  IC50: 39 µM
[8]
  inhibition of growth at 40 µg/mL: 63.8%

## O=C(O)c1cc2c([nH]c3ccccc32)c(C(=O)c2c[nH]c3ccccc23)n1
SGC-7901 [1]
  IC50: 67.7 µM
SGC-7901 [2]
  inhibition of growth at 40 µg/mL: 63%
[3]
  IC50: 48.8 µM
[4]
  IC50: 41.9 µM
[5]
  inhibition of growth at 40 µg/mL: 72.2%
HepG2 [6]
  inhibition of growth at 40 µg/mL: 78.4%
HepG2 [7]
  IC50: 51.8 µM
[8]
  inhibition of growth at 40 µg/mL: 72%

## O=c1[nH]cc(F)c(=O)[nH]1 [FLUOROURACIL]
SGC-7901 [1]
  IC50: 53.6 µM
SGC-7901 [2]
  inhibition of growth at 40 µg/mL: 79.9%
[3]
  IC50: 62.1 µM
[4]
  IC50: 116 µM
[5]
  inhibition of growth at 40 µg/mL: 61%
HepG2 [6]
  inhibition of growth at 40 µg/mL: 72.6%
HepG2 [7]
  IC50: 66.4 µM
[8]
  inhibition of growth at 40 µg/mL: 66.7%

## O=C(NCCc1ccccc1)c1cc2c([nH]c3ccccc32)c(C(=O)c2c[nH]c3ccccc23)n1
SGC-7901 [1]
  IC50: 23 µM
SGC-7901 [2]
  inhibition of growth at 40 µg/mL: 84.5%
[3]
  IC50: 44.8 µM
[4]
  IC50: 25.9 µM
[5]
  inhibition of growth at 40 µg/mL: 77.1%
HepG2 [6]
  inhibition of growth at 40 µg/mL: 82.3%
HepG2 [7]
  IC50: 19.8 µM
[8]
  inhibition of growth at 40 µg/mL: 79.8%

## COc1cc(CNC(=O)c2cc3c([nH]c4ccccc43)c(C(=O)c3c[nH]c4ccccc34)n2)ccc1O
SGC-7901 [1]
  IC50: 16.2 µM
SGC-7901 [2]
  inhibition of growth at 40 µg/mL: 83.1%
[3]
  IC50: 8.47 µM
[4]
  IC50: 21.8 µM
[5]
  inhibition of growth at 40 µg/mL: 81.7%
HepG2 [6]
  inhibition of growth at 40 µg/mL: 80.9%
HepG2 [7]
  IC50: 11.1 µM
[8]
  inhibition of growth at 40 µg/mL: 79.1%

## COc1ccc(NC(=O)c2cc3c([nH]c4ccccc43)c(C(=O)c3c[nH]c4ccccc34)n2)cc1
SGC-7901 [1]
  IC50: > 85 µM
SGC-7901 [2]
  inhibition of growth at 40 µg/mL: 41.2%
[3]
  IC50: 65.4 µM
[4]
  IC50: > 85 µM
[5]
  inhibition of growth at 40 µg/mL: 72.1%
HepG2 [6]
  inhibition of growth at 40 µg/mL: 44.8%
HepG2 [7]
  IC50: > 85 µM
[8]
  inhibition of growth at 40 µg/mL: 42%

## O=C(NCCc1cccc(O)c1)c1cc2c([nH]c3ccccc32)c(C(=O)c2c[nH]c3ccccc23)n1
SGC-7901 [1]
  IC50: 17.7 µM
SGC-7901 [2]
  inhibition of growth at 40 µg/mL: 88.3%
[3]
  IC50: 11.9 µM
[4]
  IC50: 13.8 µM
[5]
  inhibition of growth at 40 µg/mL: 87.5%
HepG2 [6]
  inhibition of growth at 40 µg/mL: 86.9%
HepG2 [7]
  IC50: 8.63 µM
[8]
  inhibition of growth at 40 µg/mL: 83.2%

## CS(=O)(=O)CCNC(=O)c1cc2c([nH]c3ccccc32)c(C(=O)c2c[nH]c3ccccc23)n1
SGC-7901 [1]
  IC50: 6.82 µM
SGC-7901 [2]
  inhibition of growth at 40 µg/mL: 88.5%
[3]
  IC50: 8.43 µM
[4]
  IC50: 7.19 µM
[5]
  inhibition of growth at 40 µg/mL: 87.9%
HepG2 [6]
  inhibition of growth at 40 µg/mL: 87.3%
HepG2 [7]
  IC50: 7.69 µM
[8]
  inhibition of growth at 40 µg/mL: 90.2%

## O=C(NCc1ccccn1)c1cc2c([nH]c3ccccc32)c(C(=O)c2c[nH]c3ccccc23)n1
SGC-7901 [1]
  IC50: 43.9 µM
SGC-7901 [2]
  inhibition of growth at 40 µg/mL: 69.5%
[3]
  IC50: 42.5 µM
[4]
  IC50: 33.8 µM
[5]
  inhibition of growth at 40 µg/mL: 70.7%
HepG2 [6]
  inhibition of growth at 40 µg/mL: 79.6%
HepG2 [7]
  IC50: 26.3 µM
[8]
  inhibition of growth at 40 µg/mL: 66.2%

## COC(=O)C(CO)NC(=O)c1cc2c([nH]c3ccccc32)c(C(=O)c2c[nH]c3ccccc23)n1 (stereo not given)
SGC-7901 [1]
  IC50: 14.3 µM
SGC-7901 [2]
  inhibition of growth at 40 µg/mL: 82.7%
[3]
  IC50: 10.5 µM
[4]
  IC50: 16.3 µM
[5]
  inhibition of growth at 40 µg/mL: 83.9%
HepG2 [6]
  inhibition of growth at 40 µg/mL: 79%
HepG2 [7]
  IC50: 9.99 µM
[8]
  inhibition of growth at 40 µg/mL: 83.2%

## COC(=O)c1cc2c([nH]c3ccccc32)c(C(=O)c2c[nH]c3ccccc23)n1
SGC-7901 [1]
  IC50: > 100 µM
SGC-7901 [2]
  inhibition of growth at 40 µg/mL: 48.6%
[3]
  IC50: > 100 µM
[4]
  IC50: > 100 µM
[5]
  inhibition of growth at 40 µg/mL: 36.8%
HepG2 [6]
  inhibition of growth at 40 µg/mL: 62.7%
HepG2 [7]
  IC50: > 100 µM
[8]
  inhibition of growth at 40 µg/mL: 35.9%

## COc1cccc(CCNC(=O)c2cc3c([nH]c4ccccc43)c(C(=O)c3c[nH]c4ccccc34)n2)c1
SGC-7901 [1]
  IC50: > 80 µM
SGC-7901 [2]
  inhibition of growth at 40 µg/mL: 39.3%
[3]
  IC50: > 80 µM
[4]
  IC50: > 80 µM
[5]
  inhibition of growth at 40 µg/mL: 16.6%
HepG2 [6]
  inhibition of growth at 40 µg/mL: 40.1%
HepG2 [7]
  IC50: > 80 µM
[8]
  inhibition of growth at 40 µg/mL: 48.4%

## COc1ccc(CCNC(=O)c2cc3c([nH]c4ccccc43)c(C(=O)c3c[nH]c4ccccc34)n2)cc1OC
SGC-7901 [1]
  IC50: > 75 µM
SGC-7901 [2]
  inhibition of growth at 40 µg/mL: 22.1%
[3]
  IC50: > 75 µM
[4]
  IC50: > 75 µM
[5]
  inhibition of growth at 40 µg/mL: 0%
HepG2 [6]
  inhibition of growth at 40 µg/mL: 31.7%
HepG2 [7]
  IC50: > 75 µM
[8]
  inhibition of growth at 40 µg/mL: 38.4%

## Cc1ccc(CNC(=O)c2cc3c([nH]c4ccccc43)c(C(=O)c3c[nH]c4ccccc34)n2)cc1
SGC-7901 [1]
  IC50: 66 µM
SGC-7901 [2]
  inhibition of growth at 40 µg/mL: 64%
[3]
  IC50: > 85 µM
[4]
  IC50: 73.2 µM
[5]
  inhibition of growth at 40 µg/mL: 27%
HepG2 [6]
  inhibition of growth at 40 µg/mL: 63.9%
HepG2 [7]
  IC50: 65.3 µM
[8]
  inhibition of growth at 40 µg/mL: 55%

## O=C(NCCc1c[nH]c2ccccc12)c1cc2c([nH]c3ccccc32)c(C(=O)c2c[nH]c3ccccc23)n1
SGC-7901 [1]
  IC50: 38.6 µM
SGC-7901 [2]
  inhibition of growth at 40 µg/mL: 76.6%
[3]
  IC50: 50.4 µM
[4]
  IC50: 44.1 µM
[5]
  inhibition of growth at 40 µg/mL: 77.8%
HepG2 [6]
  inhibition of growth at 40 µg/mL: 74.4%
HepG2 [7]
  IC50: 41 µM
[8]
  inhibition of growth at 40 µg/mL: 67%

## O=C(Nc1ccc(F)cc1)c1cc2c([nH]c3ccccc32)c(C(=O)c2c[nH]c3ccccc23)n1
SGC-7901 [1]
  IC50: > 85 µM
SGC-7901 [2]
  inhibition of growth at 40 µg/mL: 34%
[3]
  IC50: > 85 µM
[4]
  IC50: > 85 µM
[5]
  inhibition of growth at 40 µg/mL: 20.7%
HepG2 [6]
  inhibition of growth at 40 µg/mL: 34.8%
HepG2 [7]
  IC50: > 85 µM
[8]
  inhibition of growth at 40 µg/mL: 47.5%

## O=C(c1c[nH]c2ccccc12)c1nccc2c1[nH]c1ccccc12
SGC-7901 [1]
  IC50: > 120 µM
SGC-7901 [2]
  inhibition of growth at 40 µg/mL: 43.2%
[3]
  IC50: 75.8 µM
[4]
  IC50: > 120 µM
[5]
  inhibition of growth at 40 µg/mL: 59.1%
HepG2 [6]
  inhibition of growth at 40 µg/mL: 30.5%
HepG2 [7]
  IC50: > 120 µM
[8]
  inhibition of growth at 40 µg/mL: 34.6%

## O=C(NCc1ccccc1)c1cc2c([nH]c3ccccc32)c(C(=O)c2c[nH]c3ccccc23)n1
SGC-7901 [1]
  IC50: 39.9 µM
SGC-7901 [2]
  inhibition of growth at 40 µg/mL: 79%
[3]
  IC50: 56.4 µM
[4]
  IC50: 42.8 µM
[5]
  inhibition of growth at 40 µg/mL: 75.5%
HepG2 [6]
  inhibition of growth at 40 µg/mL: 77.3%
HepG2 [7]
  IC50: 36.2 µM
[8]
  inhibition of growth at 40 µg/mL: 67.4%

## O=C(NCc1cccnc1)c1cc2c([nH]c3ccccc32)c(C(=O)c2c[nH]c3ccccc23)n1
SGC-7901 [1]
  IC50: 33.1 µM
SGC-7901 [2]
  inhibition of growth at 40 µg/mL: 70.1%
[3]
  IC50: 25.2 µM
[4]
  IC50: 20.8 µM
[5]
  inhibition of growth at 40 µg/mL: 74.2%
HepG2 [6]
  inhibition of growth at 40 µg/mL: 82.8%
HepG2 [7]
  IC50: 18.5 µM
[8]
  inhibition of growth at 40 µg/mL: 73.8%
